Test [1] deals with Staphylococcus aureus. Briefly: Antimicrobial activity against Staphylococcus aureus ATCC 29737 assessed as zone of inhibition at 4 mg/ml incubated for 24 hrs by agar well diffusion method. The class given is functional. Particulars: read-out: IZ.
Test [2] relates to Escherichia coli. Briefly: Antimicrobial activity against Escherichia coli ATCC 25922 incubated for 24 hrs by broth microdilution method. The class given is functional. For orientation: In broth dilution the organism is exposed to a series of concentrations in liquid medium.
The test system of test [3] is Escherichia coli. Kind of test: Antimicrobial activity against Escherichia coli ATCC 25922 assessed as zone of inhibition at 4 mg/ml incubated for 24 hrs by agar well diffusion method. As to conditions: read-out: IZ. The class given is functional. For orientation: A growth-free zone around the sample is the usual read-out of agar diffusion tests.
Test [4] deals with Staphylococcus aureus. Briefly: Antimicrobial activity against Staphylococcus aureus ATCC 29737 incubated for 24 hrs by broth microdilution method. The class given is functional.
For test [5], the system named is Salmonella typhi. Kind of test: Antimicrobial activity against Salmonella typhi ATCC 23564 incubated for 24 hrs by broth microdilution method. As to conditions: Salmonella enterica. The class given is functional, Salmonella enterica subsp. enterica serovar Typhi.
Test [6] concerns MCF7. Briefly: Anticancer activity against human MCF7 cells assessed as inhibition of cell growth at 20 to 80 ug/ml by sulforhodamine B assay. The class given is functional, cell-based. Particulars: dose microg/ml 20-80. A general note: Sulforhodamine B stains cellular protein and so reports cell mass.
Test [7] deals with Pseudomonas aeruginosa. Kind of test: Antimicrobial activity against Pseudomonas aeruginosa ATCC 19429 incubated for 24 hrs by broth microdilution method. The class given is functional.
Test [8] can be described thus: Antioxidant activity assessed as DPPH radical scavenging activity at 250 to 1000 ug/ml after 30 mins by UV-Vis spectrophotometric analysis. The class given is functional. As to conditions: dose microg/ml 250-1000, time 30.0 min.
Test [9] relates to Mycobacterium tuberculosis. Kind of test: Antimycobacterial activity against Mycobacterium tuberculosis H37Rv assessed as bacterial growth inhibition at MIC of 34 uM. The class given is functional. Also on record: scale not given: the % may be the effect or the level left.
For test [10], the system named is Mycobacterium tuberculosis. Briefly: Antimycobacterial activity against Mycobacterium tuberculosis H37Rv assessed as bacterial growth inhibition. The class given is functional.
In test [11] the test system is Pseudomonas aeruginosa. Kind of test: Antimicrobial activity against Pseudomonas aeruginosa ATCC 19429 assessed as zone of inhibition at 4 mg/ml incubated for 24 hrs by agar well diffusion method. The class given is functional. Particulars: for zone of inhibition at 4000 µg/mL: read-out: IZ.
In test [12] the test system is Salmonella typhi. Briefly: Antimicrobial activity against Salmonella typhi ATCC 23564 assessed as zone of inhibition at 4 mg/ml incubated for 24 hrs by agar well diffusion method. The class given is functional, Salmonella enterica subsp. enterica serovar Typhi. As to conditions: Salmonella enterica, read-out: IZ.
Test [13] concerns Mycobacterium tuberculosis. Briefly: Antimycobacterial activity against Mycobacterium tuberculosis H37Rv assessed as bacterial growth inhibition at MIC of 614 uM. The class given is functional. Also on record: scale not given: the % may be the effect or the level left.
Test [14] deals with Mycobacterium tuberculosis. Briefly: Antimycobacterial activity against Mycobacterium tuberculosis H37Rv assessed as bacterial growth inhibition at MIC of 164 uM. The class given is functional. Set-up: scale not given: the % may be the effect or the level left.
The subject of test [15] is Mycobacterium tuberculosis. Kind of test: Antimycobacterial activity against Mycobacterium tuberculosis H37Rv assessed as bacterial growth inhibition at MIC of 15 uM. The class given is functional. Set-up: scale not given: the % may be the effect or the level left.
In test [16] the test system is Mycobacterium tuberculosis. Briefly: Antimycobacterial activity against Mycobacterium tuberculosis H37Rv assessed as bacterial growth inhibition at the MIC of 153 uM. Set-up: scale not given: the % may be the effect or the level left. The class given is functional.
The subject of test [17] is Mycobacterium tuberculosis. Kind of test: Antimycobacterial activity against Mycobacterium tuberculosis H37Rv assessed as bacterial growth inhibition at MIC of 566 uM. Set-up: scale not given: the % may be the effect or the level left. The class given is functional.
A further test deals with HeLa. Kind of test: Anticancer activity against human HeLa cells assessed as inhibition of cell growth at 40 to 80 ug/ml by sulforhodamine B assay. The class given is functional, cell-based. Particulars: dose microg/ml 40-80.
Test [18] has as its system Mycobacterium tuberculosis. Briefly: Antimycobacterial activity against Mycobacterium tuberculosis H37Rv assessed as bacterial growth inhibition at MIC of 144 uM. The class given is functional. Also on record: scale not given: the % may be the effect or the level left.
Test [19] has as its system MCF7. Briefly: Anticancer activity against human MCF7 cells assessed as inhibition of cell growth at 80 ug/ml by sulforhodamine B assay. The class given is functional, cell-based. Particulars: dose 80.0 µg/ml.

In brackets after ≈: the same amount, converted by molar mass. Activity calls are given as the source filed them. No cut-off for these calls is given here.

For orientation: MIC means the lowest concentration that inhibits growth of the organism. Take `CC1(C)S[C@@H]2[C@H](NC(=O)[C@H](N)c3ccccc3)C(=O)N2[C@H]1C(=O)O` [AMPICILLIN]: the results for the zone of inhibition at 4000 µg/mL with Staphylococcus aureus [1] and in the test on Escherichia coli [3] were 27.3 mm and 24.4 mm, respectively. Further, the minimum inhibitory concentration (MIC) in the test with Escherichia coli [2] and against Staphylococcus aureus [4] was 8.9 µM (≈ 3.11 µg/mL) throughout.
`Cc1ccc(C2=CC(c3ccc(F)cc3)N(C(=O)c3ccncc3)N2)cc1` (stereo not drawn): the zone of inhibition at 4000 µg/mL in the test with Staphylococcus aureus [1] came to 27 mm. For the same molecule, the minimum inhibitory concentration (MIC) in the test on Escherichia coli [2] stood at 139 µM (≈ 50 µg/mL); in the test on Salmonella typhi [5], 278 µM (≈ 99.9 µg/mL); against Pseudomonas aeruginosa [7], 139 µM (≈ 50 µg/mL); in test [10] it was 34 µM (≈ 12.2 µg/mL); in the test on Staphylococcus aureus [4] it was 17 µM (≈ 6.11 µg/mL). Further, the result (in the test with MCF7 [6]; in test [8]) was Active. The Activity in test [9] is recorded as 99%. In addition, the “inhibition zone (IZ)” value in the test with Pseudomonas aeruginosa [11] is “Active”.
For `O=C(c1ccncc1)N1NC(c2ccc(Cl)cc2)=CC1c1ccc([N+](=O)[O-])cc1` (stereo not drawn), the zone of inhibition at 4000 µg/mL came out at 23.4 mm in the test with Staphylococcus aureus [1], 18.3 mm with Salmonella typhi [12], 17.1 mm in the test on Escherichia coli [3] and 14.2 mm with Pseudomonas aeruginosa [11]. Besides, the minimum inhibitory concentration (MIC) was found to be 122 µM (≈ 49.6 µg/mL) against Escherichia coli [2]; 245 µM (≈ 99.7 µg/mL) against Salmonella typhi [5]; 122 µM (≈ 49.6 µg/mL) in the test with Pseudomonas aeruginosa [7]; 614 µM (≈ 250 µg/mL) in [10]; 245 µM (≈ 99.7 µg/mL) against Staphylococcus aureus [4]. Also, in test [8], the outcome was Active. Also, the Activity in [13] is listed as 95%.
As to `O=C(c1ccncc1)N1NC(c2ccc(Cl)cc2)=CC1c1ccc(F)cc1` (stereo not drawn), the values for the zone of inhibition at 4000 µg/mL in the test on Staphylococcus aureus [1], with Escherichia coli [3] and with Pseudomonas aeruginosa [11] were 22.3 mm, 15 mm and 12.3 mm, respectively. In addition, the Activity in test [14] came to 96%. Moreover, the minimal inhibitory concentration (MIC) stood at 32 µM (≈ 12.2 µg/mL) in the test with Escherichia coli [2]; 263 µM (≈ 99.9 µg/mL) in the test with Salmonella typhi [5]; 131 µM (≈ 49.8 µg/mL) against Pseudomonas aeruginosa [7]; 164 µM (≈ 62.3 µg/mL) in test [10]; 131 µM (≈ 49.8 µg/mL) against Staphylococcus aureus [4]. Also, in test [8], the result was Active.
With `CC[C@@H](CO)NCCN[C@@H](CC)CO` [ETHAMBUTOL], in test [15], the Activity was 99%. In addition, the MIC in test [10] was determined as 15 µM (≈ 3.06 µg/mL).
For `O=C(c1ccncc1)N1NC(c2ccc(Br)cc2)=CC1c1ccccc1` (stereo not drawn), the Activity in test [16] was 97%. The minimal inhibitory concentration (MIC) against Escherichia coli [2] was 123 µM (≈ 50 µg/mL); with Salmonella typhi [5] it was 492 µM (≈ 200 µg/mL); in the test on Pseudomonas aeruginosa [7], 123 µM (≈ 50 µg/mL); in test [10] it was 153 µM (≈ 62.2 µg/mL); in the test on Staphylococcus aureus [4], 492 µM (≈ 200 µg/mL). In addition, the result in [8] was Active. Further, the zone of inhibition at 4000 µg/mL in the test on Pseudomonas aeruginosa [11] is 10.3 mm.
In the case of `O=C(c1ccncc1)N1NC(c2ccc(Cl)cc2Cl)=CC1c1cccc([N+](=O)[O-])c1` (stereo not drawn), the zone of inhibition at 4000 µg/mL in the test on Staphylococcus aureus [1] was 23.8 mm; in the test on Salmonella typhi [12], 21 mm; in the test on Escherichia coli [3] it was 12.4 mm. The MIC against Escherichia coli [2] is 113 µM (≈ 49.9 µg/mL); against Salmonella typhi [5] it was 453 µM (≈ 200 µg/mL); against Pseudomonas aeruginosa [7], 453 µM (≈ 200 µg/mL); in test [10] it was 566 µM (≈ 250 µg/mL); in the test with Staphylococcus aureus [4] it was 226 µM (≈ 99.7 µg/mL). The outcome in test [8] was Active. In addition, the Activity in test [17] is given as 95%.
For `COc1cccc(C2=CC(c3ccc(Br)cc3)N(C(=O)c3ccncc3)N2)c1` (stereo not drawn), the zone of inhibition at 4000 µg/mL with Staphylococcus aureus [1] was 26.4 mm; in the test with Salmonella typhi [12], 22.4 mm; in the test with Escherichia coli [3], 16.4 mm; in the test on Pseudomonas aeruginosa [11] it was 14.3 mm. In addition, the result (in the test on HeLa; in [8]; with MCF7 [19]) was Active. Also, the MIC against Escherichia coli [2] was determined as 57 µM (≈ 24.9 µg/mL); against Salmonella typhi [5], 114 µM (≈ 49.7 µg/mL); in the test with Pseudomonas aeruginosa [7] it was 229 µM (≈ 99.9 µg/mL); in test [10], 144 µM (≈ 62.8 µg/mL); against Staphylococcus aureus [4], 14 µM (≈ 6.11 µg/mL). Moreover, the Activity in test [18] was 98%.
